From patent publication US20220018836A1, “NON-LIVING SURROGATE INDICATORS AND METHODS FOR SANITATION VALIDATION” (priority 2018, published 2022)

How the values were obtained:
phage T7 = experiment: Survivor population of phage T7 after sanitizer treatment; format: cell-based; settings: 2 min, 4° C.
E. coli O157:H7 cells = format: cell-based, Escherichia coli O157:H7

Compound | inactivation of phage T7 (phage T7; PAA at 80 ppm, 9 log inoculum level) | complete inactivation of phages (phage T7; PAA up to 80 ppm, 9 log inoculum level) | further inactivation of E. coli O157:H7 with an increase of PAA concentration (E. coli O157:H7 cells) | inactivation of E. coli O157:H7 cells (E. coli O157:H7 cells) [log] | survivors of E. coli O157:H7 (E. coli O157:H7 cells) | complete inactivation of inoculated phages (phage T7; lowest concentration tested, 2 ppm of free chlorine)
CC(=O)OO [PAA, peracetic acid] | more than 6 log | complete inactivation of phages (9 log inoculum level) was not observed | no significant inactivation | 2 | around 4 log | 
OCl [chlorine, sodium hypochlorite] |  |  |  |  |  | complete inactivation of inoculated phages was observed
